Test [1] relates to mouse models of arthritis. The note with it: purified celastrol, 1-3 mg/kg daily; cited from earlier work.
The test system of test [2] is androgen-responsive gene expression in LNCaP cells. As to the kind of experiment: Genome-wide gene expression profiling with hierarchical clustering of androgen-responsive genes. It is filed as cell-based. As to conditions: androgen-stimulated LNCaP, celastrol 1.25 μM, gedunin 20 μM, 24 hr. On the procedure:
We next asked whether celastrol and gedunin inhibit the broader program of androgen signaling beyond the GE-HTS signature. To address this question, we compared the genome-wide gene expression profiles of androgen-stimulated LNCaP cells treated with celastrol (1.25 μM) and gedunin (20 μM) for 24 hr to those of androgen-stimulated and androgen-deprived cells.
The mRNA expression profiles of celastrol- and gedunin-treated cells were determined by Affymetrix U133A microarray analysis in triplicate. RNA was isolated by Trizol extraction from LNCaP cells treated with vehicle, 1.25 μM celastrol, or 20 μM gedunin (1) for 24 hr in RPMI, 10% charcoal-stripped FBS, and 1 nM R1881 or vehicle, following androgen deprivation in charcoal-stripped media for 2 days, and (2) for 6 hr in RPMI with 10% FBS. IVT, labeling, hybridization, and washing were carried out on the Affymetrix High-Throughput Array platform using HT_HG-U133A preproduction arrays (early access version; part number 520276) for all but the 24 hr gedunin samples. U133A version 2 arrays were used for the 24 hr gedunin samples for technical reasons. Raw data were processed by RMA. For hierarchical clustering, a 169 probe set of androgen-regulated genes was defined and used to perform average linkage clustering (see below). […]

Test [3] has as its system rat models for Alzheimer's disease. The note with it: 7 mg/kg daily; cited from earlier work.
The next test deals with LNCaP cells. As to the kind of experiment: Soft agar assay of anchorage-independent growth. It is filed as cell-based. The note with it: for colony size in soft agar: LNCaP; for anchorage-independent growth of LNCaP cells (colony number): soft agar, celastrol 0.625 μM, compared with bicalutamide (casodex). The method, then:
To investigate the cellular consequences of celastrol- and gedunin-mediated inhibition, we assessed whether celastrol and gedunin activity results in decreased cell growth, consistent with AR inhibition. […] Second, the compounds' effects on anchorage-independent growth of LNCaP cells was assayed in soft agar (FIG. 6D).
Adherent cell growth was measured by luminescent assay of ATP level (CellTiterGlo, Promega). LNCaP cells were grown in charcoal-stripped media for 2 days prior to simultaneous treatment with 1 nM R1881 and the relevant compound. Synergy was assessed by analyzing the IC50 of one drug over a range of concentrations of the other drug and vice versa. The resulting concentration pairs were visualized by isobologram (Gessner, 1995). Anchorage independence was measured by soft agar assay (Hahn et al., 1999). Compounds were added to both agar layers. Colonies were scored after 3 weeks.

In another test the target is HSP90α (Homo sapiens, UniProt P07900). As to the kind of experiment: HSP90 ATP-binding assay (ATP-polyacrylamide pulldown from lysates of treated cells). It is filed as cell-based. On the set-up: endogenous in cells; host or cells: LNCaP and K562. As to conditions: LNCaP and K562 cells treated 24 hr. The method, then:
Given their inhibition of HSP90 clients, we next asked whether celastrol and gedunin affect HSP90 activity itself. To assess the effects on HSP90 activity within a cellular context, we treated LNCaP and K562 cells with celastrol or gedunin for 24 hr and subsequently tested the cellular HSP90's ATP-binding activity. ATP-binding activity was assayed by ATP-polyacrylamide pulldown of HSP90 from cell lysates, followed by western blot-based quantification (Bali et al., 2005). This assay identifies HSP90 inhibition, both direct and indirect, that alters HSP90 ATP-binding activity in cell lines (Bali et al., 2005, Soti et al., 2002). […] The decrease in ATP binding by HSP90 cannot be accounted for by changes in HSP90 level (FIG. 7E). Celastrol and gedunin therefore inhibit HSP90 activity itself in a cellular context, either directly or indirectly.
The ATP-binding assay was similar to that in previous reports (Bali et al., 2005, Soti et al., 2002). LNCaP and K562 cells were treated with celastrol and gedunin for 24 hr and then lysed in TNESV buffer (50 mM Tris, 2 mM EDTA, […], 1 mM activated sodium orthovanadate, 25 mM NaF, 1% Triton X-100 [pH 7.5]) for 30 min at 4° C. Lysates were spun for 30 min at 12,000 rpm at 4° C. […]

Here are results for two compounds from US20110263693A1, “CELASTROL, GEDUNIN, AND DERIVATIVES THEREOF AS HSP90 INHIBITORS” (DANA-FARBER CANCER INSTITUTE, INC., priority 2006, published 2011).

Take `CC1=C(O)C(=O)C=C2C1=CC=C1[C@@]2(C)CC[C@@]2(C)[C@@H]3C[C@](C)(C(=O)O)CC[C@]3(C)CC[C@]12C` [celastrol]: the “bioactivity in mouse models of arthritis” value in test [1] was “significant bioactivity”. Further, the “broader program of androgen signaling (genome-wide expression, hierarchical clustering)” value in test [2] is listed as “invoked a broader gene expression program similar to that induced by androgen deprivation”. Also, the “activity in rat models for Alzheimer's disease” value in test [3] is “activity”. Moreover, in the test with LNCaP cells, the “colony size in soft agar” value is listed as “inhibited colony size” and the “anchorage-independent growth of LNCaP cells (colony number)” value was “inhibited anchorage-independent growth to a similar degree as the AR competitive antagonist bicalutamide (casodex)”. At HSP90α, the “ATP-binding activity of HSP90α” value is listed as “inhibited the ATP-binding activity”.
Turning to `CC(=O)O[C@@H]1C[C@H]2C(C)(C)C(=O)C=C[C@]2(C)[C@H]2CC[C@@]3(C)[C@H](c4ccoc4)OC(=O)[C@H]4O[C@]43[C@@]21C` [gedunin], in test [2], the “broader program of androgen signaling (genome-wide expression, hierarchical clustering)” value is “invoked a broader gene expression program similar to that induced by androgen deprivation”. Moreover, in the test with LNCaP cells, the “colony size in soft agar” value is on record as “inhibited colony size” and the “anchorage-independent growth of LNCaP cells (colony number)” value is given as “inhibited anchorage-independent growth to a similar degree as the AR competitive antagonist bicalutamide (casodex)”. Moreover, the “ATP-binding activity of HSP90α” value at HSP90α was “inhibited the ATP-binding activity”.
